Marks after values point to notes of the source that are not given here. One block for each compound: values may come before it.
Columns and labels:
Blood half-life = assay type: in vivo, mouse; settings: athymic nude mice, tail vein injection
Procedure: The blood half-life was determined by measuring the activity in serial blood samplings. […] Measurements in counts per minute were calculated as the mean % ID/g. The blood half-life was calculated using Prism 6.0c (GraphPad Software, La Jolla, Calif.).
The blood half-life was calculated by measuring the activity of blood samples collected at different time points p.i. […] The collected blood was weighed and counted in a WIZARD^2 automatic γ-counter (PerkinElmer, Boston, Mass.). The blood half-life was calculated using Prism 6.0c (GraphPad Software, La Jolla, Calif.) using a two-phase decay least squares fitting method and expressed as % ID/g.

[1] = Stability in whole blood (in vitro); assay type: in vitro ADME; settings: whole human blood, 37° C., 15 to 240 minutes
Procedure: C-2f was then extracted with 750 μL of MeCN, then centrifuged (5 minutes at 5000 rpm) to pellet blood cells and proteins. The supernatant was collected and prepared for HPLC injection by adding 750 μL mQ H2O and filtering. The blood stability was measured by HPLC analysis (Method A).

[2] = system: U251 MG tumor bearing mice; assay: Biodistribution; assay type: in vivo, mouse; settings: C-2f, i.v., 120 min post injection, unblocked
Procedure: Biodistribution studies were conducted on female nude mice (8-10 weeks old and 20-25 g in weight, n=21) bearing U251 MG subcutaneous xenografts. The radiolabeled preparation (20-30 μCi of compound C-2d (^131I) in 200 μL of a solution 90% PBS 10% PEG300) was administrated via the lateral tail vein. The compound was allowed to circulate for 2 h post injection at which time mice were sacrificed and organs were harvested (n=3). The radioactive content in tissue of interest (blood, tumor, muscle, bone, liver, spleen, kidney, heart, lung, pancreas, brain, skin, small intestine, large intestine, stomach, tail, thyroid and feces) was measured on a Wizard 2470 Automatic Gamma Counter, and the tissue-associated activity was calculated as the mean % ID/g using the following formula: [(activity in the target organ/grams of tissue)/injected dose]×100%.
Biodistribution studies were performed in subcutaneous U251 MG xenograft bearing athymic nude mice (n=12). Mice were divided in two groups (blocked and unblocked) and administered with C-2f (approximately 50 μCi, 45 mCi/μmol in […], 10% EtOH in 0.9% sterile saline) via tail vein injection. […] Mice were sacrificed by CO2 asphyxiation at 120 min post injection and major organs were collected, weighed, and counted in a WIZARD^2 automatic γ-counter (PerkinElmer, Boston, Mass.). The radiopharmaceutical uptake was expressed as a percentage of injected dose per gram (% ID/g) using the following formula: [(activity in the target organ/grams of tissue)/injected dose]×100%.

[3] = system: orthotopic U251 MG tumor bearing mice; assay: Autoradiography using C-2f; assay type: in vivo, mouse
Procedure: One day after PET/CT imaging, the same orthotopic U251 MG tumor bearing mice of Example 4.1.3 were administered with C-2f (80 μCi, 45 mCi/μmol in 300 μL 10% EtOH in 0.9% sterile saline) via tail vein injection. […] The mice were sacrificed after 2 hours and brain and muscle tissues harvested. The collected organs were fixed in Tissue-Tek O.C.T. compound (Sakura Finetek, Torrance, Calif.) and flash-frozen in liquid nitrogen and cut into 20 μm sections using a Vibratome Ultra Pro 5000 Cryostat (Vibratome, St. Louis, Mo.). A storage phosphor autoradiography plate (Fujifilm, BAS-MS2325, Fuji Photo Film, Japan) was exposed to the tissue slices overnight at −20° C. and read the following day (images not shown). Relative count intensity of the sections in each image was quantified using ImageJ 1.47 u processing software (see FIGS. 6A and 6B). Tumor/muscle and brain/muscle ratios were calculated using Prism 6.0c (GraphPad Software, La Jolla, Calif.). The same sections were subsequently subjected to H&E staining (hematoxylin-eosin) for morphological evaluation of tissue pathology and to compare the localization of the radiotracer with the location of tumor tissue (images not shown).

[4] = system: mice bearing orthotopic U251 MG; assay: PET/CT imaging using C-2f; assay type: in vivo, mouse
Procedure: Mice bearing orthotopic U251 MG (n=8) were divided in two groups (unblocked and blocked) and administered with C-2f (150 μCi, 45 mCi/μmol in 300 μL 10% EtOH in 0.9% sterile saline) via tail vein injection. […] Approximately 5 min prior to PET acquisition, mice were anesthetized by inhalation of a mixture of isoflurane (Baxter Healthcare, Deerfield, Ill., USA; 2% isoflurane, 2 L/min medical air) and positioned on the scanner bed. Anesthesia was maintained using a 1% isoflurane/O2 mixture. PET data for each mouse was recorded using static scans of 10 minutes and acquired at 30 and 120 minutes post injection. Quantification (see FIG. 8) and % ID/g values were calculated by manually drawing regions of interests in three different frames and determining the average values using ASI Pro VM™ MicroPET Analysis software (Siemens Medical Solutions, Knoxville, Tex.).

[5] = half-life of PARP1i-FL (T. Reiner et al., unpublished); settings: in vivo
[6] = cited from earlier work
V79 cells = settings: DNA-incorporated; cited from earlier work

alpha blood half-life (Blood half-life): 1.27 min
beta blood half-life (Blood half-life): 31.14 min
beta blood half-life, share of phase (Blood half-life): 14.49%
weighted blood half-life (Blood half-life; 50 μCi): 5.6 min
in vitro blood stability [1]: excellent stability
in vitro blood stability ([1]; listed as C-2f): no radioactive metabolites were observed
% ID/g, Brain [2]: 0.04±0.01 % ID/g
% ID/g, Muscle [2]: 0.37±0.09 % ID/g
% ID/g, Tumor [2]: 1.82±0.21 % ID/g
autoradiography, retention in orthotopic tumor ([3]; C-2f only, 2 hours): 46.66±14.94 AU
autoradiography, retention in surrounding brain ([3]; C-2f only, 2 hours): 0.06±0.02 AU
autoradiography, muscle tissue ([3]; healthy mice): 1.50±0.31 AU
autoradiography, retention in orthotopic tumor ([3]; preinjection of olaparib): 0.44±0.41 AU
autoradiography, retention in surrounding brain ([3]; preinjection of olaparib): 0.03±0.01 AU
autoradiography, muscle tissue ([3]; tumor-bearing mice): 1.36±0.21 AU
PET retained activity in tumor ([4]; animals receiving only C-2f): 2.15±0.79 % ID/g
PET retained activity in tumor ([4]; animals that received both olaparib and C-2f): 0.28±0.01 % ID/g
PET retained activity, C-2f only vs olaparib and C-2f ([4]; mouse, in vivo): eight-fold higher
SMILES: O=C(c1ccc([18F])cc1)N1CCN(C(=O)c2cc(Cc3n[nH]c(=O)c4ccccc34)ccc2F)CC1 [C-2f (^18F)]
reduction of C-2f by preinjection of olaparib ([3]; orthotopic tumor): 99%

SMILES: Cc1cc(C)n2c1C=C1C=CC(CCC(=O)N3CCN(C(=O)c4cc(Cc5n[nH]c(=O)c6ccccc56)ccc4F)CC3)=[N+]1[B-]2(F)F [PARP1i-FL]
tα1/2 [5]: 1.2 min
tα1/2, share of phase [5]: 73.2%
tβ1/2 [5]: 88.2 min
tβ1/2, share of phase [5]: 26.8%
weighted t1/2 [5]: 24.5 min^c
plasma free fraction [6]: 0.7%^b

SMILES: O=c1[nH]c(=O)n([C@H]2C[C@H](O)[C@@H](CO)O2)cc1I [^123I-IdUrd, 5-iodo-2′-deoxy uridine]
RBE (V79 cells): ~7

SMILES: O=c1[nH]c(=O)n([C@H]2C[C@H](O)[C@@H](CO)O2)cc1I [^125I-IdUrd, 5-iodo-2′-deoxy uridine]
RBE (V79 cells): about 8

Reference: patent publication US10512700B2, “Radiohalide-labeled targeted diagnostics and therapeutics” (Memorial Sloan Kettering Cancer Center, priority 2014, dated 2019)
